pIC50: −log10 of the molar value.
Experiments:
[1] = system: B16-F10 (melanoma); test: MTT cytotoxicity/selectivity, B16-F10; type: cell-based; conditions: vs normal oral fibroblasts
Experimental: (§1) Human SCC-4, SCC-9, and SCC-25 cells, derived from a human oral tongue SCC (squamous cell carcinoma), were obtained from ATCC (CRL-1624, CRL-1629, and CRL-1628, respectively) and maintained in 1:1 DMEM/F12 (Dulbecco’s modified Eagle’s medium and Ham’s F12 medium; Gibco (Thermo Fisher, Waltham, MA, USA)) supplemented with 10% (v/v) FBS (fetal bovine serum; Invitrogen, Thermo Fisher, Waltham, MA, USA) and 400 ng/mL hydrocortisone (Sigma-Aldrich Corporation, St. Louis, MO, USA). B16-F10 (melanoma; CRL-6475), HCT-116 (colorectal cancer; CCL-247), and HepG2 (liver cancer; HB-8065), in addition to primary normal human gingival fibroblasts obtained from ATCC (PCS-201-018), were maintained in DMEM supplemented with 10% (v/v) of FBS and were used in a maximum of six passages. Cells were grown in a humidified environment containing 5% CO2 at 37 °C. For all biological assays, compounds and shikonin were solubilized in 100% DMSO (all Sigma-Aldrich Corp.) to a final concentration of 10 mM and lapachol in ethanol. The carboplatin control was prepared in water (Fauldcarbo; Libbs Farmacêutica, São Paulo, SP, Brazil) and was used as a standard anticancer compound.
(§2) The viability of OSCC cell lines and primary human fibroblast cells was assessed using the MTT assay as in ref . Briefly, cells were grown in triplicate in 96-well plates (5 × 10^3 cells/well) until confluence. Then, the medium was removed, fresh medium was added, and the cells were returned to the incubator in the presence of different compounds. […] Then, the wells containing the cells were washed with PBS heated to 37 °C, the formazan crystals were dissolved in a solvent solution (DMSO/methanol 1:1 v/v), and the absorbance was read at 560 nm using an EPOCH microplate spectrophotometer (BioTek Instruments, Winooski, VT, USA) with the background absorbance at 670 nm subtracted. […]
(§3) Data are presented as means ± SD. […] The selectivity index was calculated as SI = IC50 of the compound in normal oral fibroblast cells/IC50 of the same compound for each oral cancer cell line (SCC-4, SCC-9, and SCC-25) and averaged when indicated.

[2] = system: OSCC cell lines (SCC-4, SCC-9, and SCC-25); test: Average selectivity index over three OSCC cell lines (MTT); type: cell-based, human; conditions: average of SI for SCC-4, SCC-9 and SCC-25 vs normal oral fibroblasts
Experimental: as §1
(§4) The viability of OSCC cell lines and primary human fibroblast cells was assessed using the MTT assay as in ref . Briefly, cells were grown in triplicate in 96-well plates (5 × 10^3 cells/well) until confluence. Then, the medium was removed, fresh medium was added, and the cells were returned to the incubator in the presence of different compounds. DMSO at the same concentration was used as a control for 100% cell viability. After 72 h, cells were incubated with 0.5 mg/mL of MTT reagent (3-(4,5-dimethyl-2-thiazolyl)-2,5-diphenyl-2-H-tetrazolium bromide) (Sigma-Aldrich Corporation, Louis, MO, USA) for 3.5 h. Then, the wells containing the cells were washed with PBS heated to 37 °C, the formazan crystals were dissolved in a solvent solution (DMSO/methanol 1:1 v/v), and the absorbance was read at 560 nm using an EPOCH microplate spectrophotometer (BioTek Instruments, Winooski, VT, USA) with the background absorbance at 670 nm subtracted. Control chemotherapeutics (carboplatin and shikonin) were used.
(§5) Data are presented as means ± SD. IC50 values for the MTT assays were obtained by nonlinear regression using the […] 8.4.3.0 program (Intuitive Software for Science, San Diego, CA, USA) from at least three independent experiments. A dose–response curve (inhibitor) vs response using the least-squares method was used to determine the IC50, SD, and R2 of the data. The selectivity index was calculated as SI = IC50 of the compound in normal oral fibroblast cells/IC50 of the same compound for each oral cancer cell line (SCC-4, SCC-9, and SCC-25) and averaged when indicated.

[3] = system: SCC-9 cells; test: Reactive oxygen species production (ROS-Glo H2O2); type: cell-based, human; conditions: 2 × IC50, 24, 48 and 72 h, menadione positive control
Experimental: The assay was performed in SCC-9 cells as previously described. […] Menadione (M9529, Sigma-Aldrich Corporation, San Luis, Mo., USA), at a concentration of 20 μM, served as a positive control, while DMSO, at equivalent concentrations to the test substances, served as the negative control. Cells were then incubated at 37 °C with 5% CO2 for the indicated time, and ROS was measured by ROS-Glo H2O2 Assay G8820 (Promega Corporation, Madison, WI 53711 USA) as indicated by the vendor. The luminescence signal was measured using a luminescence detector, Luminometer TD-20/20 (Turner Designs Instrument, Sunnyvale, CA, USA).

[4] = system: primary normal human gingival fibroblasts; test: MTT cell viability assay, primary gingival fibroblasts; type: cell-based; conditions: Homo sapiens, Fibroblast; 72 h, MTT; read-out: IC50 primary gingival fibroblast
Experimental: as §1, §4, §5

[5] = system: active caspase 3/7 in SCC-9 cells; test: Active caspase 3/7 staining; type: cell-based, human; conditions: 2 × IC50, 24 h
Experimental: The following reagents were used in this assay: CellEvent Caspase-3/7 Green Ready Probes Reagent kit (R37111, Thermo Fisher, Waltham, Massachusetts, USA). SCC-9 cells were plated in 24-well microplates in the amount of 5 × 10^4 cells per well as previously described in ref . […] The duration of the treatment time was 24 h. After this period, the cells were taken to the Zeiss Axio Observer A1 fluorescence optical microscope (Zeiss, Oberkochen, Baden-Württemberg, Germany) to obtain caspase labeling images from five different fields. Data quantification was performed using the ImageJ program, and the values of reactive cells for caspase were compared in relation to the total number of cells per field, and the result was given as a percentage.

[6] = system: HepG2 (liver cancer); test: MTT cytotoxicity/selectivity, HepG2; type: cell-based; conditions: vs normal oral fibroblasts
Experimental: as §1, §2, §3

[7] = system: SCC-9 cells; test: Cell migration (wound healing) assay; type: cell-based, human; conditions: 1/8 of IC50, 72 h, SCC-9, mitomycin C
Experimental: To evaluate the inhibitory capacity of cell migration by substances 7a and 7e, 2 × 10^5 cells of the SCC-9 lineage were plated in a 35 mm Petri dish containing 2.0 mL of supplemented DMEN/F-12 medium and incubated at 37 °C with 5% CO2 until they reached at least ∼100% confluence. After this time, the metabolized medium was removed, and the cells were washed once with PBS and fresh medium (2.0 mL) treated with mitomycin C (MMC), 1-amino-9a-metoxi-7-metil-4,7,9,9a-tetra-hidro-3H-furo[3,4:6,7]-nafto[1,2-d]-imidazole-2(1H)-ona (Sigma-Aldrich Corporation, San Luis, Missouri, USA) at a concentration of 0.5 mg/mL, in a volume of 0.5 μL/mL, and returned to the incubator for 2 h. At the end of the time, scratch wounds were created on the cell monolayer by using a 200 μL capacity tip. […] The plate containing the cells was inserted into a chamber adapted to a Leica DMi1 inverted optical microscope (Leica Microsystems, Wetzlar, Germany) under controlled conditions of CO2 (5%) and temperature (37 °C). Phase contrast images in timelapse footage at 20× magnification for 72 h were captured every 2 min and 24 s. Measurements between the captured margins were collected using ImageJ analysis software (National Institute of Health, USA). […] The percentage of wound closure at each subsequent time is calculated in relation to the initial distance (time: 0 h).

CC1(C)OC2=C(C(=O)c3ccccc3C2=O)C(Sc2ccccc2)C1Sc1ccccc1 (stereo not shown) [7a, 2,2-Dimethyl-3,4-bis(phenylthio)-3,4-dihydro-2H-benzo[g]chromene-5,10-dione]
selective index (SI) B16-F10 melanoma [1]: 1.4
average SI [2]: 3.2
ROS production [3]: induced the generation of ROS
pIC50 [4]: 4.24
cells with positive staining for active caspases 3 and 7 [5]: 71%
selective index (SI) HepG2 hepatocellular carcinoma [6]: 2.1
wound closure [7]: 28.4%

COc1ccc(SC2C3=C(OC(C)(C)C2Sc2ccc(OC)cc2)C(=O)c2ccccc2C3=O)cc1 (stereo not shown) [7e, 3,4-Bis((4-methoxyphenyl)thio)-2,2-dimethyl-3,4-dihydro-2H-benzo[g]chromene-5,10-dione]
selective index (SI) B16-F10 melanoma [1]: 7.5
ROS production [3]: induced the generation of ROS
pIC50 [4]: 3.96
cells with positive staining for active caspases 3 and 7 [5]: 78.6%
selective index (SI) HepG2 hepatocellular carcinoma [6]: 3.4
wound closure [7]: 54.7%

Source: PMC12444508, “Mechanistic Insights into the Anticancer Action of Novel 2‑Hydroxy-1,4-naphthoquinone Thiol Derivatives” (ACS Omega, 2025)
